# Source: the supplement of paper PMC10307832
# Compound: C[C@@H](C(=O)N[C@@H](C1CCCCC1)C(=O)N2CCC[C@H]2C(=O)N[C@@H]3[C@@H](CC4=CC=CC=C34)OCC#CC#CCO[C@@H]5CC6=CC=CC=C6[C@@H]5NC(=O)[C@@H]7CCCN7C(=O)[C@H](C8CCCCC8)NC(=O)[C@H](C)NC)NC [AZD5582] + NC(=O)Nc1cc(-c2cccc(F)c2)sc1C(=O)N[C@H]1CCCNC1 [AZD7762] (partner 0.2 µM)
# Experiment: relative viability (nuclei count vs DMSO), 5 days (fraction); higher = more cells survive
# Summary of the method: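 Medians of duplicate plates are given as relative viability. That measure is the nuclei count in treated wells divided by the count in vehicle wells. Counts were taken on 4× images of lung cancer cell lines in 1536-well plates, 5 days after pin-tool dosing the day after seeding with one drug alone or a fixed anchor-drug dose plus five library-drug doses (not always all listed) in √10 steps.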
Cell Line,relative viability (first compound 0.001581 µM),relative viability (first compound 0.005 µM),relative viability (first compound 0.01581 µM),relative viability (first compound 0.05 µM)
NCI-H358,0.471,0.586,0.697,0.506
HCC-827,0.192,0.139,0.211,0.186
NCI-H1355,0.47,0.667,0.643,0.556
NCI-H1793,0.254,0.795,0.277,0.487
CAL-12T,0.423,0.468,0.485,0.405
NCI-H1993,0.694,0.867,0.7,1.03
EKVX,0.603,0.661,0.565,0.595
NCI-H1755,0.438,0.472,0.291,0.494
NCI-H460,0.516,0.628,0.562,0.639
HCC-44,0.9,1.01,1.05,1.03
BEN,0.74,0.701,0.866,0.619
H3255,0.805,0.779,0.842,0.773
A-427,0.682,0.703,0.748,0.637
NCI-H1651,0.419,0.456,0.398,0.388
EPLC-272H,0.0994,,0.204,0.0859
HCC-15,1.06,1.05,1.2,0.615
NCI-H3122,0.899,0.988,1.01,0.306
NCI-H838,0.87,0.903,0.81,1.01
NCI-H1975,0.709,0.932,0.667,0.902
NCI-H441,0.942,0.895,1.02,0.867
NCI-H23,0.163,0.172,0.177,0.227

Cell Line,relative viability (first compound 0.001581 µM),relative viability (first compound 0.005 µM),relative viability (first compound 0.01581 µM),relative viability (first compound 0.05 µM)
HARA,0.204,0.261,0.315,0.225
ABC-1,0.59,1.13,0.72,0.572
LOU-NH91,0.715,0.833,0.704,0.742
NCI-H596,1.07,,1.11,0.38
NCI-H2405,0.87,0.878,0.674,0.997
PC-3 [JPC-3],0.706,0.617,0.73,0.423
NCI-H1666,0.774,0.85,0.737,0.746
NCI-H522,0.982,0.887,0.885,0.645
NCI-H2085,0.987,1.02,0.855,0.948
NCI-H1734,0.502,0.498,0.584,0.749
LK-2,0.249,0.537,,0.338
LXF-289,1.01,1.09,0.963,1.12
EMC-BAC-2,1.07,1.06,0.996,1.04
201T,0.479,0.579,0.556,0.447
ChaGo-K-1,0.794,0.874,0.816,0.837
NCI-H1648,0.462,0.649,,0.626
RERF-LC-KJ,0.2,0.414,0.855,0.491
NCI-H2347,0.724,0.558,0.666,0.713
NCI-H2126,0.981,0.933,0.896,0.747
NCI-H1792,0.647,0.625,0.585,1.02
NCI-H1437,1.1,1.14,1.09,1.14

Cell Line,relative viability (first compound 0.001581 µM),relative viability (first compound 0.005 µM),relative viability (first compound 0.01581 µM),relative viability (first compound 0.05 µM)
SW 900,0.539,0.491,0.544,0.31
LCLC-103H,0.745,0.725,0.613,0.41
NCI-H2342,0.429,0.43,0.49,0.556
NCI-H647,0.324,0.394,0.336,0.447
LC-2-ad,0.821,1.04,0.801,0.929
NCI-H2087,1.21,1.27,1.17,1.13
NCI-H1944,0.316,0.523,0.475,0.581
NCI-H727,0.538,0.744,0.651,0.833
HCC-78,0.691,0.601,0.468,0.417
NCI-H1915,0.657,0.672,0.673,0.495
PC-14,0.255,0.247,0.294,0.183
LCLC-97TM1,0.193,0.221,0.225,0.154
LU99A,0.317,0.349,0.313,0.337
HCC-366,0.132,0.285,0.33,0.41
NCI-H1395,0.346,0.376,,0.406
NCI-H2170,0.813,0.884,0.88,1.04
HOP-62,0.29,0.395,0.722,0.508
NCI-H322M,0.53,0.598,0.504,0.6
NCI-H650,1.05,1.07,0.643,0.788
